From PubChem BioAssay (NCI)
Where “and” joins values, the source holds several entries; their conditions need not be identical. Identical values can stand only once.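 1) Cells in 96-well plates. 2) Compound, 48 h, 5 concentrations. 3) Linear interpolation between surrounding doses. 4) Unreached endpoint = highest concentration. GI50 is the concentration that inhibits growth by half. TGI denotes the concentration required for complete inhibition of growth.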

Legend:
Experiment in all cases: DTP human tumour cell line panel, 48 h
M14 melanoma = system: M14 melanoma
T-47D breast = system: T-47D breast
K-562 leukemia = system: K-562 leukemia
OVCAR-5 ovarian = system: OVCAR-5 ovarian
MDA-MB-231 breast = system: MDA-MB-231 breast
UACC-62 melanoma = system: UACC-62 melanoma
NCI-H23 lung = system: NCI-H23 lung
MALME-3M melanoma = system: MALME-3M melanoma
SNB-19 CNS = system: SNB-19 CNS
A549 NSCLC = system: A549 NSCLC

SMILES	TGI (M14 melanoma)	TGI (T-47D breast)	GI50 (K-562 leukemia)	TGI (K-562 leukemia)	TGI (OVCAR-5 ovarian)	TGI (MDA-MB-231 breast)	TGI (UACC-62 melanoma)	TGI (NCI-H23 lung)	GI50 (MALME-3M melanoma)	TGI (MALME-3M melanoma)	TGI (SNB-19 CNS)	GI50 (A549 NSCLC)	TGI (A549 NSCLC)	GI50 (M14 melanoma)	GI50 (T-47D breast)	GI50 (OVCAR-5 ovarian)	GI50 (MDA-MB-231 breast)	GI50 (UACC-62 melanoma)	GI50 (NCI-H23 lung)	GI50 (SNB-19 CNS)
C=C(C)[C@]12CC(C)C34OC(/C=C\C=C\CCCCCCCCC)(O[C@@H]1[C@@H]3[C@@H]1O[C@]1(CO)[C@@H](O)[C@]1(O)C(=O)C(C)=C[C@@H]41)O2 (stereo partly specified)	27.4 µM	26.5 µM	< 0.0001 µM	> 35 µM	41.2 µM	15.4 µM	24 µM	29.2 µM	< 0.0001 µM	23.1 µM	30.5 µM	< 0.0001 µM	20.9 µM							
CCNC(=O)Oc1ccc(/C(=C(\C)c2ccc(Cl)cc2)c2ccc(OCCN3CCCCC3)cc2)cc1	3.8 µM	10.2 µM	2.34 µM	5.96 µM	23.8 µM	11.5 µM	6.01 µM	19.7 µM	1.78 µM	3.9 µM	16.2 µM	8.47 µM	22.4 µM	1.87 µM	1.34 µM	11 µM	3.55 µM	2.5 µM	5.1 µM	4.77 µM
O=c1[nH]c2cc(O)ccc2n2cc3c(F)cccc3c12	> 100 µM	> 100 µM	0.547 µM	> 100 µM	> 100 µM	> 100 µM	> 100 µM	> 100 µM	3.96 µM	> 100 µM	> 100 µM	1.31 µM	> 100 µM	1.38 µM	> 100 µM	> 31.3 µM	6.42 µM	1.29 µM	3.86 µM	3.33 µM
COc1cc(C2c3cc4c(cc3[C@@H](Nc3cccc(O)c3)C3COC(=O)[C@H]23)OCO4)cc(OC)c1O (stereo partly specified)	14.1 µM	53.2 µM	0.802 µM	22.2 µM	22.7 µM	24.2 µM	7.08 µM	5.52 µM		11.2 µM	24.9 µM	0.579 µM	7.03 µM	0.991 µM				0.603 µM	0.445 µM	0.949 µM
C[C@]12CC[C@@H]3c4ccc(O)cc4CC[C@H]3[C@@H]1CC[C@@H]2NS(=O)(=O)c1ccc(-c2ccccc2)cc1	12.9 µM	49 µM	3.48 µM	> 100 µM	19.2 µM	19.6 µM	20 µM	17.2 µM	3.01 µM	12.6 µM	> 100 µM	3.26 µM	> 100 µM	3.46 µM	3.47 µM	4.76 µM	4.58 µM	4.2 µM	3.49 µM	4.92 µM
O=c1c2cc(F)ccc2sc2c(NCCCN3CCCC3)nc3ccccc3c12	3.47 µM	23.8 µM	2.06 µM	4.86 µM	3.74 µM	3.2 µM	3.77 µM	3.69 µM	1.77 µM	3.37 µM	3.53 µM	1.87 µM	3.83 µM	1.86 µM	3.89 µM	1.85 µM	1.55 µM	1.87 µM	1.89 µM	1.7 µM
CCCCCCCCCCCCNC(=O)[C@H]1CSC(c2ccc(OC)c(F)c2)N1 (stereo partly specified)	0.374 µM	3.66 µM	0.215 µM	0.938 µM	2.72 µM	0.55 µM	2.83 µM	3.27 µM	1.78 µM	3.24 µM	3.66 µM	1.89 µM	3.69 µM	0.191 µM	1.75 µM	1.4 µM	0.225 µM	1.45 µM	1.6 µM	1.95 µM
Cc1cc2c(cc1Cl)SC1=NN(C)C(c3ccccc3O)N1S2(=O)=O (stereo unspecified)	> 100 µM	> 100 µM	> 100 µM	> 100 µM	> 100 µM	> 100 µM	> 100 µM	> 100 µM	> 100 µM	> 100 µM	> 100 µM	86.2 µM	> 100 µM	47.5 µM	> 100 µM	60 µM	60.3 µM	73.8 µM	> 100 µM	86.7 µM
COc1cc(C(=O)N/N=C/c2cccc([N+](=O)[O-])c2)cc(OC)c1OC	54.3 µM	> 100 µM	0.872 µM	> 100 µM	> 100 µM	> 100 µM	> 100 µM	> 100 µM	2.75 µM	9.86 µM	> 100 µM	8.02 µM	> 100 µM	4.3 µM	35.6 µM	39.7 µM	26.1 µM	6.31 µM	5.96 µM	55.1 µM
CC1(C)CC2(C)OC2C2(C1)N=NC(=Nc1ccccc1)O2 (stereo unspecified)	19.2 µM	14.4 µM	2.3 µM	12.5 µM	26.2 µM	7.75 µM	16 µM	29.9 µM	3.07 µM	12.1 µM	28 µM	11 µM	39.5 µM	5.15 µM	2.83 µM	11.2 µM	2.61 µM	3.76 µM	5.93 µM	14.1 µM
CC1SC2(CCCCC2)N(NC(=O)c2[nH]c3ccc(F)cc3c2-c2ccccc2)C1=O (stereo unspecified)	> 100 µM	> 100 µM	35.4 µM	> 100 µM	> 100 µM	> 100 µM	> 100 µM	> 100 µM	26.1 µM	> 100 µM	> 100 µM	72.3 µM	> 100 µM	> 100 µM	> 100 µM	> 100 µM	31 µM	21.2 µM	> 100 µM	55.6 µM
CCN(CC)CCOc1ccc(C2=C(c3ccccc3)CCc3cc(OC)ccc32)cc1	3.82 µM	6.86 µM	2.8 µM	15.5 µM	5.52 µM	7.44 µM	3.9 µM	11.3 µM	1.69 µM	3.41 µM	7.42 µM	4.02 µM	16.2 µM	1.88 µM	0.811 µM	2.31 µM	2.26 µM	1.87 µM	2.9 µM	2.38 µM
Cc1cc(N)c2ccccc2[n+]1CCCCCCCCCC[n+]1c(C)cc(N)c2ccccc21	3.25 µM and 18.5 µM and 7.33 µM		0.137 µM	2.22 µM and 3.84 µM and 12.4 µM	25.5 µM and 7.98 µM	> 11.5 µM and 12.7 µM		> 12.4 µM and 3.96 µM and 3.89 µM	0.163 µM and 1.35 µM		> 26.1 µM and 2.96 µM and 16.2 µM	0.116 µM	6.88 µM and 50 µM	0.584 µM	0.0959 µM		0.505 µM	0.189 µM	0.236 µM and 0.484 µM	
C[C@H](NC(=O)CCC(F)(F)F)C(=O)N[C@@H]1C(=O)N(CCO)c2ncccc2-c2ccccc21	> 100 µM	> 100 µM	> 100 µM	> 100 µM	> 100 µM	> 100 µM	> 100 µM	> 100 µM	> 100 µM	> 100 µM	> 100 µM	> 100 µM	> 100 µM	> 100 µM	> 100 µM	> 100 µM	> 100 µM	> 100 µM	> 100 µM	> 100 µM
CCCCCCN1C(=O)CN=C1Nc1ccc2cc3ccc(NC4=NCC(=O)N4CCCCCC)cc3nc2c1	4.84 µM	4.97 µM	1.91 µM	4.93 µM	4.12 µM	3.87 µM	30 µM	5.23 µM	1.71 µM	3.59 µM	4.67 µM	2.03 µM	3.96 µM	1.95 µM	1.71 µM	1.81 µM	1.94 µM	11.7 µM	1.96 µM	2.07 µM
Nc1ccc2c(c1)CN1C(=O)c3ccccc3C1=N2	> 125 µM	> 125 µM	52.4 µM	> 125 µM	> 112 µM	123 µM	> 116 µM	> 125 µM		> 125 µM	124 µM		> 125 µM					52.9 µM		60.6 µM
CCCOc1c2cc(COC3OC(CO)C(O)C(O)C3O)cc1Cc1cc(COC3OC(CO)C(O)C(O)C3O)cc(c1OCCC)Cc1cc(COC3OC(CO)C(O)C(O)C3O)cc(c1OCCC)Cc1cc(COC3OC(CO)C(O)C(O)C3O)cc(c1OCCC)C2 (stereo unspecified)	> 100 µM and 32.4 µM	> 100 µM	36.7 µM and 62.2 µM and 15.8 µM	> 100 µM and 32.5 µM	> 100 µM and 55.2 µM	> 100 µM and 34.1 µM	> 100 µM and 35 µM	> 100 µM and 52.8 µM		> 100 µM	> 100 µM and 32.1 µM	49.5 µM and > 100 µM and 26.9 µM	> 100 µM and 94.4 µM	61.1 µM and 56.1 µM and 16.2 µM	34.3 µM and 69.9 µM and 29 µM	41.8 µM and > 100 µM and 22 µM	45.2 µM and > 100 µM and 17 µM	90.7 µM and > 100 µM and 16 µM	69.6 µM and 71 µM and 21.2 µM	66.1 µM and > 100 µM and 17.5 µM
N#CC1(C#N)C2C=CC(C3CCC=C32)C1(C#N)C#N (stereo unspecified)	> 10 µM	> 8.87 µM		> 10 µM	> 10 µM	> 10 µM	> 10 µM	> 10 µM		5.5 µM	> 10 µM		> 10 µM							
COc1ccc(N=C2NN=C(c3c[nH]c4ccccc34)CS2)cc1OC	> 100 µM	> 73.3 µM	7.67 µM	> 100 µM	> 100 µM	> 100 µM	> 100 µM	> 93.2 µM	15 µM	> 69.1 µM	> 100 µM	9.92 µM	> 53.1 µM	4.49 µM	5.04 µM	> 70.6 µM	8.73 µM	4.81 µM	13.5 µM	10.9 µM
